The values below are quoted from earlier work in patent US20090169619A1, “CARBAMAZEPINE EXTENDED RELEASE DOSAGE FORM” (CorePharma LLC, priority 2005, published 2009).

`NC(=O)N1c2ccccc2C=Cc2ccccc21` [Carbamazepine, 5H-Dibenz[b,f]azepine-5-carboxamide]: the solubility in water result is listed as “poor solubility”.
